These results are taken from patent US12257282B2, “Mixtures and formulations” (CAMURUS AB, priority 2016, dated 2025).

Series [1] is described as follows: DTPA solubility in EtOH/PG as a function of ETA/DTPA molar ratio. The format is physicochemical.
Series [2] can be described thus: Octreotide stability in lipid formulations (assay by gradient HPLC-UV after storage). As to conditions: for effect on octreotide stability compared to the reference formulation (FIG. 7): alkylamine used to solubilize 100 ppm EDTA, alkylamine:EDTA 4:1; for effect on octreotide stability compared to the reference formulation (FIG. 7) / effect on OCT(Cl) stability vs. the reference formulation (FIG. 6): up to two months; for effect on OCT(Cl) stability vs. the reference formulation (FIG. 6): additive mixtures in EtOH/PG filtered to remove non-dissolved particles, 5 ppm Fe3+.

The conditions of series [3]: placebo SPC/GDO 50/50 and 35/65 with EtOH; 100 ppm EDTA; with or without 5 ppm Fe3+; 60° C./ambient RH and 40° C./75% RH. The method, then:
Oxygen concentration in the vial headspace was measured using a PC-controlled PreSens Microx TX3 micro fiber optic oxygen transmitter equipped with a needle-type optical oxygen microsensor (NTH, 140 μm flat broken tip). Measurements were performed by penetrating the oxygen microsensor through the vial rubber stopper into the vial headspace and measuring the oxygen concentration until a stable readout was obtained (about 1 min).
Some formulations also contained 5 ppm Fe^3+ to enhance the oxidative stress conditions (Table 10).

For series [4] the following is noted: 2.00 wt % SOM(Cl) in SPC/GDO/EtOH/PG; 100 ppm EDTA with ETA; 40° C./75% RH and 25° C./60% RH, up to three months.
The conditions of series [5]: cited from earlier work.
For series [6], the system named is SSTR1-SSTRS. As to conditions: cited from earlier work.
The conditions of series [7]: single subcutaneous dose, human plasma; cited from earlier work.
The conditions of series [8]: 0.38 wt % EDTA in EtOH/PG (1/1 wt/wt).

Numbered stars: 1 amine (or outer) side, 2 acyl side, 3 side chain; on linkers, the order of the positions; unused ones are H or OH. Square brackets hold non-standard residues; d marks the D form. Side chains are listed from the residue outwards. Peptide text beside a SMILES is read from it. * marks the point of attachment. Ethylenediamine = C(CN[*:2])N[*:1]; Hyp = O=C(O)[C@@H]1C[C@@H](O)CN1; Phg = N[C@H](C(=O)O)c1ccccc1; CO = O=C([*:1])[*:2]; Bn = c1ccc(C*)cc1

For the compound `O=C(O)CN(CCN(CC(=O)O)CC(=O)O)CCN(CC(=O)O)CC(=O)O` [DTPA, Diethylenetriaminepentaacetic (pentetic) acid], the “DTPA solubility in EtOH/PG without using ETA” value in series [1] (0.08 wt % DTPA) was “not soluble”. In series [1] (0.08 wt % DTPA in EtOH/PG (50/50 w/w)), the “required minimum amount of ETA needed to solubilize DTPA” value is given as “about 4.3 mol of ETA per 1 mol of DTPA”.
Regarding `OCCNCCO` [DiETA, Diethanolamine], the “effect on octreotide stability compared to the reference formulation (FIG. 7)” value in series [2] (40° C./75% RH) was “enhanced the peptide stability to a similar high degree”.
For the compound `O.O.O=C(O)CN(CCN(CC(=O)O)CC(=O)O)CC(=O)O.[Na].[Na]` [EDTA(Na), Ethylenediaminetetraacetic acid disodium dihydrate], in series [2] (40° C./75% RH), the “effect on OCT(Cl) stability vs. the reference formulation (FIG. 6)” value is listed as “negative effect”.
Take `O=C(O)CN(CCN(CC(=O)O)CC(=O)O)CC(=O)O` [EDTA, Ethylenediaminetetraacetic (edetic) acid]: the “effect on consumption of headspace oxygen (lipid oxidation, FIG. 15-18)” value in series [3] is recorded as “drastically reduce consumption of oxygen”. Further, the “effect on SOM stability (SOM assay, FIG. 9)” value in series [4] was “dramatically enhanced the peptide stability”. Also, in series [2] (2.27 wt % OCT(Cl) in SPC/GDO/EtOH/PG, 0-750 ppm EDTA with ETA, 40° C./75% RH, 0, 1, 2 months, air headspace), the “effect on octreotide stability vs. reference formulation (FIG. 2)” value is recorded as “dramatically enhanced the peptide stability”. In addition, the “EDTA concentration interval of maximum stabilization effect” value in series [2] (2.27 wt % OCT(Cl) in SPC/GDO/EtOH/PG, 40° C./75% RH) was 50-250 ppm. Moreover, the “effect on octreotide stability (octreotide assay, FIG. 1)” value in series [2] (2.34 wt % OCT(Cl) in SPC/GDO/EtOH/PG, 100 ppm EDTA with 100 ppm ETA vs none, […], up to three months, air headspace) was “dramatically enhanced the peptide stability”. For the same compound, in series [2] (100 ppm EDTA with ETA, pre-filled glass syringes, 25° C./60% RH, up to twelve months), the “effect on long-term octreotide stability (FIG. 3)” value is “significantly enhanced the long-term peptide stability”. Further, the “effect on OCT(Cl) stability vs. the reference formulation (FIG. 6)” value in series [2] (40° C./75% RH) is reported as “negative effect”.
Take `NCCO` [ETA, Ethanolamine]: the “effect on octreotide stability compared to the reference formulation (FIG. 7)” value in series [2] (40° C./75% RH) is on record as “enhanced the peptide stability to a similar high degree”.
As for `C[C@@H](O)[C@@H]1NC(=O)[C@H](CCCCN)NC(=O)[C@@H](Cc2c[nH]c3ccccc23)NC(=O)[C@H](Cc2ccccc2)NC(=O)[C@@H](NC(=O)[C@H](N)Cc2ccccc2)CSSC[C@@H](C(=O)N[C@H](CO)[C@@H](C)O)NC1=O` [Octreotide, D-Phe-Cys-Phe-D-Trp-Lys-Thr-Cys-Thr-ol (2-7 disulphide bridge)], in series [5] (in vivo), the terminal half-life entry is listed as “around 1.7 hours”. In addition, the “selectivity for SSTR2 and SSTRS” value in series [6] is on record as “high selectivity”.
For the compound `NCCCC[C@@H]1NC(=O)[C@@H](Cc2c[nH]c3ccccc23)NC(=O)[C@H](c2ccccc2)NC(=O)[C@@H]2C[C@@H](OC(=O)NCCN)CN2C(=O)[C@H](Cc2ccccc2)NC(=O)[C@H](Cc2ccc(OCc3ccccc3)cc2)NC1=O` [pasireotide] (cyclo([Hyp]([CO-Ethylenediamine])[Phg][dW]KY(Bn)F)), in series [7], the “initial half-life following the peak” value was 2 to 3 h.
On to `NC(CO)CO` [serinol], for which, in series [8], the “required minimum amount of alkylamine needed to solubilize EDTA” value is on record as “about 4 mol per 1 mol of EDTA”.
With “Ala-Gly-Cys-Lys-Asn-Phe-Phe-Trp-Lys-Thr-Phe-Thr-Ser-Cys [SST-14]”, the biological half-life in series [5] (natural SST-14) is listed as 1-3 minutes. Moreover, in series [6] (SSTR1-SSTRS), the “affinity of the five SSTR types” value is “equally high affinity”.
